Among the data in PubChem BioAssay AID179 (DTP/NCI, 2004) are EC50, IC50 and outcome values, retold here.

Activity calls are given as the source filed them.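 Rule for the calls: active = compounds giving half or more protection of infected cells from virus-caused growth loss, again on retest; inactive = the rest.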 Where a SMILES comes first, the peptide text is derived from it. Bridges are numbered along the chain shown (N, C = ends). [ ]: non-standard residue; d: D form. Aib = CC(C)(N)C(=O)O; βAla = NCCC(=O)O Where only a bound is given, the exact number is not on record here.

In this assay the test system is CEM cells HIV-1 protection, formazan growth assay. Put plainly: NCI AIDS Antiviral Assay. Conditions: for IC50: measured here: growth of uninfected CEM cells. The method in brief:
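CEM (human) cells, HIV-1 infected vs uninfected, 5-point dosing, formazan growth read-out. Retest threshold 50% protection.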

A word on the EC50: it is the midpoint of the concentration-response curve. In general, IC50 refers to the midpoint of a concentration-inhibition curve.

For the compound `NC1=NS(=O)(=O)Nc2nc(-c3ccc([N+](=O)[O-])o3)[nH]c21`, the EC50 is > 200 µM and the IC50 turned out to be 10 µM.

On to `CCCCCCCCCCCCCCCCCCCCOC1OC(COC(C)=O)C(OC(C)=O)C(OC(C)=O)C1OC(C)=O` (stereo not given), for which the EC50 is > 35.5 µM and the IC50 is > 35.5 µM.

As to `Nc1ccccc1C(=O)C(Br)C(Br)c1ccc2c(c1)OCO2` (stereo not given), the EC50 is > 43.7 µM and the IC50 is 23.4 µM.

Regarding `CC1=C(OCCCl)C2CC1C1C(=O)N(c3ccccc3)C(=O)C21` (stereo not given), the EC50 is > 389 µM and the IC50 was > 389 µM.

In the case of `O=S(=O)(O)C(O)/C=C/c1ccccc1` (stereo not given), the result was inactive.

`O=C(CC12C3C4C1C1C2C3C41CC(=O)NO)NO` (stereo not given): the EC50 is > 251 µM and the IC50 was 49 µM.

As for `O=C(CCl)N1CCN(C(c2ccccc2)c2ccccc2)CC1`, the EC50 is > 79.4 µM and the IC50 is 3.72 µM.

On to `Nc1ccc(N=O)c(N)n1`, for which the EC50 is > 200 µM and the IC50 was > 200 µM.

In the case of `CC1(C)NC(=O)C(NC(=O)C(N)CC(=O)O)CCCCNC(=O)CCNC1=O` (stereo not given) (H-DK[Aib][βAla]; lactam 2-C; configuration not given here), the EC50 is > 200 µM and the IC50 is > 200 µM.

As to `COc1ccc(/C=C/C(=O)c2ccccc2)cc1`, the EC50 was > 41.7 µM and the IC50 was 24.5 µM.

For `O=C(O)CSC(=O)Nc1ccc(N=Nc2ccccc2)cc1`, the outcome was inactive.

Take `O=C1Cc2ccccc2N1C1c2ccccc2C=Cc2ccccc21`: the EC50 was > 200 µM and the IC50 was determined as 21.4 µM.

As for `CN(C)/N=C(/c1nc2ccc([N+](=O)[O-])cc2[nH]c1=O)C(O)c1ccco1` (stereo not given), the EC50 is > 263 µM and the IC50 was found to be 191 µM.

In the case of `c1ccc(COc2nc3ccc(C45CC6CC(CC(C6)C4)C5)cc3[nH]2)cc1`, the EC50 is > 200 µM and the IC50 is 7.41 µM.

Regarding `Cc1cc(O)c2c(=O)c(=O)c2c1`, the EC50 is > 1550 µM and the IC50 came out at 275 µM.

On to `Cc1oc(C)c2c1C(=O)N(C)C2=O`, for which the EC50 was > 100 µM and the IC50 is > 100 µM.

In the case of `O=C1OCCOCCOCCOC(=O)c2ccccc2SSc2ccccc21`, the EC50 was > 200 µM and the IC50 was 33.9 µM.

Turning to `Cc1ccc(/C=N\NC(=O)c2ccncc2)s1`, the EC50 was > 200 µM and the IC50 is 117 µM.

On to `CC1(C)C(=O)C(O)=CC2C1=CCC1C2(C)C(=O)CC2(C)C(C(C)(O)C(=O)CC(O)C(C)(C)O)C(O)CC12C` (stereo not given), for which the EC50 is > 20 µM and the IC50 is 1.32 µM.

With `CC(=O)OC[C@]12[C@H](OC(C)=O)[C@H](OC(C)=O)[C@@H]3C(OC(C)=O)[C@@]14OC3(C)COC(=O)c1cccnc1CCC(C)C(=O)OC([C@H]4C)[C@H](O)[C@@H]2OC(=O)c1ccccc1` (stereo not given in full), the outcome was inactive.

For the compound `O=C(O)[C@@H]1CSC(c2ccccc2Cl)N1` (stereo not given in full), the EC50 was > 200 µM and the IC50 came to 141 µM.

On to `CCOC(=O)c1cc2sc(NC(=O)c3ccco3)nc2o1`, for which the EC50 is 182 µM and the IC50 was > 200 µM.

Turning to `OCC1OC(n2cnc3c(SSc4ncnc5c4ncn5C4OC(CO)C(O)C4O)ncnc32)C(O)C1O` (stereo not given), the EC50 was > 200 µM and the IC50 was > 200 µM.

With `Cc1cc2nnc(-c3ccc(C#N)cc3)n2c2nnnn12`, the EC50 is > 200 µM.

For the compound `COC(=O)C1=C(C)N2CCOC2CC1c1ccccc1` (stereo not given), the EC50 was > 200 µM and the IC50 came out at 135 µM.

`CC(C(=O)N1C(=O)N(C(=O)[C@H](C)C(O)c2ccccc2)[C@H](c2ccccc2)[C@H]1c1ccccc1)[C@@H](O)c1ccccc1` (stereo not given in full): the EC50 is > 200 µM and the IC50 amounted to 28.2 µM.

With `COc1c(F)c(F)c(/C(O)=C\c2nc3ccccc3[nH]c2=O)c(F)c1F`, the EC50 is > 200 µM and the IC50 is 195 µM.

Consider `C=C(NC(=O)C(=C)NC(=O)c1csc(C2=NC3c4csc(n4)C4NC(=O)c5csc(n5)C(C(C)(O)C(C)O)NC(=O)C5CSC(=N5)/C(=C/C)NC(=O)C(C(C)O)NC(=O)c5csc(n5)C3(CC2)NC(=O)C(C)NC(=O)C(=C)NC(=O)C(C)NC(=O)C(C(C)CC)NC2C=Cc3c(C(C)O)cc(nc3C2O)C(=O)OC4C)n1)C(N)=O` (stereo not given), for which the EC50 turned out to be 8.91 µM and the IC50 was 43.7 µM.

With `COc1cc(/C=C2\C(=O)N(c3cc(Cl)ccc3Cl)C(c3ccccc3)S2(=O)=O)cc(OC)c1OC` (stereo not given), the EC50 was > 200 µM and the IC50 amounted to 120 µM.

On to `NNC(=S)N/N=C(\CCCC(=O)NCCc1ccccc1)CC(=O)c1ccccc1`, for which the EC50 is > 219 µM and the IC50 was > 219 µM.

For the compound `CS(=O)(=O)NNS(=O)(=O)c1ccc(Br)cc1`, the EC50 was > 398 µM and the IC50 was > 398 µM.

Consider `CSc1nc2c(c(=O)[nH]1)N=C(c1ccc([N+](=O)[O-])cc1)CC(c1ccccc1)N2` (stereo not given), for which the outcome was inactive.

With `CCOC(=S)SSC(=S)OCC`, the EC50 was > 200 µM and the IC50 amounted to 107 µM.

In the case of `Cc1ccc(NC(=O)/C(Cc2cc(=O)oc3cc(O)ccc23)=N\NC(=O)C[N+](C)(C)C)cc1C`, the EC50 is > 186 µM and the IC50 is > 186 µM.

Regarding `Cc1nonc1C(=O)NN`, the EC50 was > 631 µM and the IC50 was > 631 µM.

As for `O=C(O)C(NCc1ccccc1)C(NCc1ccccc1)C(=O)O` (stereo not given), the EC50 is > 200 µM and the IC50 was > 200 µM.

Take `O=C(CCC(=O)Nc1cccc(Cl)c1)CC(=O)c1ccc(F)cc1`: the outcome was inactive.

In the case of `COc1ccc(/C=C2\N=C(c3ccccc3)N(N=C3NC(=O)CC(=O)N3)C2=O)cc1`, the EC50 is > 200 µM and the IC50 was > 200 µM.

With `O=C(N/N=C\c1ccccn1)c1ccncc1`, the EC50 was > 200 µM and the IC50 stood at 91.2 µM.

Take `COc1cc(C(=O)Nc2cccc3ccccc23)c(Br)c(OC)c1OC`: the EC50 was > 45.7 µM and the IC50 is > 45.7 µM.

On to `CCOC(=O)c1[nH]cc(C)c1-c1ccn(-c2ccccc2)c1`, for which the EC50 is > 200 µM and the IC50 amounted to 45.7 µM.

On to `O=c1oc2ccccc2cc1Cl`, for which the EC50 is > 145 µM and the IC50 was > 145 µM.

As for `c1ncn(C23C4C5C6C4C2C6C53)n1` (stereo not given), the EC50 is > 200 µM and the IC50 was > 200 µM.

`CCCCC[C@@H]1CCC[C@H]2NC(CCCCC3OCCO3)CC[C@@H]12` (stereo not given in full): the result was inactive.

As for `COc1ccc(C(=O)O[C@H]2[C@@H]3C=CO[C@@H](OC4OC(CO)C(O)C(O)C4O)[C@@H]3[C@@]3(CO)O[C@@H]23)cc1O` (stereo not given in full), the result was inactive.

Take `CN(Cc1cnc2nc(N)nc(N)c2n1)c1ccc(C(=O)NC(CCC(=O)NC(P(=O)(O)O)P(=O)(O)O)C(=O)O)cc1` (stereo not given): the EC50 is > 200 µM and the concentration for half-maximal inhibition (IC50) worked out at 11.2 µM.

As for `Cc1ccc(Nc2cccc3c2C(=O)c2cccc(Nc4ccc(C)cc4S(=O)(=O)O)c2C3=O)c(S(=O)(=O)O)c1`, the result was active.

In the case of `COC(=O)C12c3[nH]c4ccccc4c3CCN1CC(=O)C2C(=O)OCc1ccccc1` (stereo not given), the EC50 is > 91.2 µM and the IC50 was determined as 57.5 µM.

On to `CCN(CC)CCNc1ccc2ncn3c4c(OC)ccc(OC)c4c(=O)c1c23`, for which the EC50 is > 50.1 µM and the IC50 was 1.23 µM.

With `COc1cc2ccccc2oc1=O`, the EC50 was > 40.7 µM and the IC50 was > 40.7 µM.

Turning to `NC(=O)C12C(=O)NC(=O)C1(C(=O)O)C21CCCC1` (stereo not given), the EC50 was > 200 µM and the IC50 is > 200 µM.

Consider `O=C(NCCCCCCNC(=O)NS(=O)(=O)c1ccccc1)NS(=O)(=O)c1ccccc1`, for which the EC50 is > 200 µM and the IC50 was > 200 µM.

On to `COC(OC)C1(c2ccccc2)Oc2ccccc2C1=O` (stereo not given), for which the EC50 was > 166 µM and the IC50 is 81.3 µM.

In the case of `Cc1ccc(S(=O)(=O)OCC23CCC(CC2)C2CC23)cc1` (stereo not given), the EC50 was > 100 µM and the IC50 was found to be 70.8 µM.

Take `CC(C)(C)C1CCC2c3c([nH]c4ccccc34)C3C(=O)N(c4cc(Br)cc(Br)c4)C(=O)C3C2C1` (stereo not given): the EC50 was > 200 µM and the IC50 amounted to 12.6 µM.

For the compound `N/C(=N\C(O)C(Cl)(Cl)Cl)SCNC(=O)NCS/C(N)=N/C(O)C(Cl)(Cl)Cl` (stereo not given), the EC50 is > 158 µM and the IC50 worked out at 126 µM.

As to `Cn1c(NN)nc2ccccc2c1=O`, the result was inactive.

On to `O=Cc1ccc2c(c1)CC1(C2)Cc2ccc(C=O)cc2C1`, for which the EC50 is > 200 µM and the IC50 is 4.79 µM.

For `Cc1ccc(C2SC(N)=Nc3c2c(C)nn3C(=O)c2ccc(Cl)cc2)cc1` (stereo not given), the outcome was inactive.

As to `CCCCCCCCCCCCCCCCc1c(C(=O)OC)nc(NN)[nH]c1=O`, the EC50 is > 9.33 µM and the IC50 was > 9.33 µM.

As to `C=CCCC1CCCCC/C1=N\N(C)C` (stereo not given), the EC50 is > 200 µM and the IC50 is > 200 µM.

Turning to `CC(=O)O[C@H]1CC[C@@]2(C)C(=CC[C@H]3[C@@H]4CC[C@H]([C@H](C)C(=O)OCC5OC(n6cc(C)c(=O)[nH]c6=O)CC5N=[N+]=[N-])[C@@]4(C)CC[C@@H]32)C1` (stereo not given in full), the EC50 was > 200 µM and the IC50 turned out to be 4.79 µM.

In the case of `CC1CC(=O)C(CC(=O)O)[C@H]1C(C(=O)C(=O)Nc1cc(Cl)ccc1Cl)[N+](=O)[O-]` (stereo not given in full), the result was inactive.

In the case of `COC1=NC2=CC(=O)c3c(c(OC(C)=O)c(C)c4c3C(=O)C(C)(O/C=C/C(OC)C(C)C(OC(C)=O)C(C)C(O)C(C)C(OC(C)=O)C(C)/C=C/C=C\1C)O4)C2=O` (stereo not given), the EC50 was > 200 µM and the IC50 was found to be 16.6 µM.

On to `O=S(=O)(O)CCCCCO`, for which the EC50 is > 200 µM and the IC50 is > 200 µM.

With `O=C1/C(=C/c2ccc(Cl)c(Cl)c2)CN(C(=O)CCN2CCOCC2)C/C1=C\c1ccc(Cl)c(Cl)c1`, the EC50 is > 22.9 µM and the IC50 is 0.12 µM.

On to `CC(=O)N1c2ccccc2C2=CC3C4C(=O)N(c5ccccc5)C(=O)C4C21C1C(=O)N(c2ccccc2)C(=O)C31` (stereo not given), for which the outcome was inactive.

With `CCc1c(-c2coc(CC/C(C)=C/c3ccccc3)n2)oc(OC)c(C)c1=O`, the EC50 is > 9.55 µM and the IC50 was found to be 0.251 µM.

For `COc1ccc(-c2cc(-c3ccccc3)n(C3OC(COC(C)=O)C(OC(C)=O)C(OC(C)=O)C3OC(C)=O)c(=S)c2C#N)cc1` (stereo not given), the EC50 is > 166 µM and the IC50 turned out to be 32.4 µM.
